Drawing on ChEMBL document CHEMBL1159235, “The novel desmethyldestruxin B2, from Metarhizium anisopliae, that suppresses hepatitis B virus surface antigen production in human hepatoma cells” (J Nat Prod, 1995), this text covers IC50 for seven compounds.

In the experiment the test system is Hepatitis B virus. Kind of experiment: Antiviral activity against Hepatitis B virus infected in human Hep3B cells assessed as surface antigen production. Type of experiment: functional, organism-based, Hep 3B2.

The structures appear in SMILES notation. Values after ≈ are worked out from the molar mass of the structure shown. Where a SMILES comes first, the peptide text is derived from it. [ ]: non-standard residue; d: D form. dLac(3-vinyl) = C=CC[C@@H](O)C(=O)O; dHica = CC(C)C[C@@H](O)C(=O)O; NMeV = CN[C@H](C(=O)O)C(C)C; NMeA = CN[C@@H](C)C(=O)O; βAla = NCCC(=O)O

What is called IC50 is the concentration that inhibits the measured activity by half. `CC[C@H](C)[C@@H]1NC(=O)[C@@H]2CCCN2C(=O)[C@@H](CC(C)C)OC(=O)CCNC(=O)[C@H](C)N(C)C(=O)[C@H](C(C)C)N(C)C1=O` (cyclo(I[NMeV][NMeA][βAla][dHica]P)): the 50% inhibitory concentration (IC50) worked out at 0.2 µg/mL (≈ 0.337 µM). As for `C=CC[C@H]1OC(=O)CCNC(=O)[C@H](C)N(C)C(=O)[C@H](C(C)C)N(C)C(=O)[C@H]([C@@H](C)CC)NC(=O)[C@@H]2CCCN2C1=O` (cyclo(I[NMeV][NMeA][βAla][dLac(3-vinyl)]P)), the IC50 was found to be 0.1 µg/mL (≈ 0.173 µM).

For the compound `C=CC[C@H]1OC(=O)CCNC(=O)[C@H](C)N(C)C(=O)[C@H](C(C)C)NC(=O)[C@H]([C@@H](C)CC)NC(=O)[C@@H]2CCCN2C1=O` [DESMETHYLDESTRUXIN A], the 50% inhibitory concentration (IC50) stood at 1.2 µg/mL (≈ 2.13 µM).

For `CC(C)C[C@H]1OC(=O)CCNC(=O)[C@H](C)N(C)C(=O)[C@H](C(C)C)NC(=O)[C@H](C(C)C)NC(=O)[C@@H]2CCCN2C1=O` [DESMETHYLDESTRUXIN B2] (cyclo([NMeA][βAla][dHica]PVV)), the 50% inhibitory concentration (IC50) was found to be 1.5 µg/mL (≈ 2.65 µM). As to `CC[C@H](C)[C@@H]1NC(=O)[C@@H]2CCCN2C(=O)[C@@H](CC(C)C)OC(=O)CCNC(=O)[C@H](C)N(C)C(=O)[C@H](C(C)C)NC1=O` [DESMETHYLDESTRUXIN B] (cyclo(IV[NMeA][βAla][dHica]P)), the IC50 is 0.6 µg/mL (≈ 1.03 µM). Turning to `C=CC[C@H]1OC(=O)CCNC(=O)[C@H](C)N(C)C(=O)[C@H](C(C)C)N(C)C(=O)[C@H](C(C)C)NC(=O)[C@@H]2CCCN2C1=O` [DESTRUXIN A2] (cyclo([NMeA][βAla][dLac(3-vinyl)]PV[NMeV])), the IC50 turned out to be 0.4 µg/mL (≈ 0.71 µM). For `CC(C)C[C@H]1OC(=O)CCNC(=O)[C@H](C)N(C)C(=O)[C@H](C(C)C)N(C)C(=O)[C@H](C(C)C)NC(=O)[C@@H]2CCCN2C1=O` [DESTRUXIN B2] (cyclo([NMeA][βAla][dHica]PV[NMeV])), the 50% inhibitory concentration (IC50) came to 0.3 µg/mL (≈ 0.517 µM).
